How the values were obtained:
human TLR7 = biological target: T1, human TLR7 (Homo sapiens, UniProt Q9NYK1); test: HEK293 NFKB reporter assay, human TLR7; format: cell-based; conditions: HEK293 reporter cells expressing human TLR7; read-out: HEK293 hTLR7 EC50
T1 construct: host or cells: HEK293 reporter cells
T1 sequence (Q9NYK1 27-1049): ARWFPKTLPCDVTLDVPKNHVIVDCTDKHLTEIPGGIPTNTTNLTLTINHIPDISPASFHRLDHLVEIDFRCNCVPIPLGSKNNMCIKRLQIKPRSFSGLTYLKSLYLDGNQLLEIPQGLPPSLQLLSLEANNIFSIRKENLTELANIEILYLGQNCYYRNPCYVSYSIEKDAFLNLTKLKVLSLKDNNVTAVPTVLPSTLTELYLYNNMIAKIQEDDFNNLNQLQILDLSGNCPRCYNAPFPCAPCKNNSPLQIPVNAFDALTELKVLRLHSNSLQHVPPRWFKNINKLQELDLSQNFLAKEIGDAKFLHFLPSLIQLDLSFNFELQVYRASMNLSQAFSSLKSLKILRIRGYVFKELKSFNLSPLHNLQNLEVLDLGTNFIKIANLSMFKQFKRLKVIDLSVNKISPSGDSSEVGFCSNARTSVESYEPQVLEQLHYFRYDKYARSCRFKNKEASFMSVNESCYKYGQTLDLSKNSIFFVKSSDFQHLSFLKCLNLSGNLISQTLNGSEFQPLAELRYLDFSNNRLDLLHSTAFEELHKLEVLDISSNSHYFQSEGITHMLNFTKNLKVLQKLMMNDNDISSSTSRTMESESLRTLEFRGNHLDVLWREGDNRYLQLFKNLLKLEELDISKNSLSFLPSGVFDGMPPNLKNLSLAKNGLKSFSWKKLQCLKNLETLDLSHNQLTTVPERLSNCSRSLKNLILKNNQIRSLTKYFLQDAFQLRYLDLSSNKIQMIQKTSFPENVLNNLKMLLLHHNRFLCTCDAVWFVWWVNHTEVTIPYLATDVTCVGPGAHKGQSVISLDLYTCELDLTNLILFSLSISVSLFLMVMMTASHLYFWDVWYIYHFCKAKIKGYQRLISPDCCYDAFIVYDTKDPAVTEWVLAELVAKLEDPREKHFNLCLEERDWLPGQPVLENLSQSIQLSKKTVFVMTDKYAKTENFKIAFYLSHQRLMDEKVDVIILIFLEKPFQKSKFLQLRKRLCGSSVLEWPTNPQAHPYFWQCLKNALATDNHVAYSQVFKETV
Method: (§1) Exemplary 8-sulfonyl-2-aminobenzazepine compounds (8SO2Bz) of the invention were synthesized, purified, and characterized by mass spectrometry and shown to have the expected mass. Additional experimental procedures are found in the Examples. Activity against HEK293 NFKB reporter cells expressing human TLR7 or human TLR8 was measured according to Example 202.
(§2) Example 202 HEK Reporter Assay
(§3) HEK293 reporter cells expressing human TLR7 or human TLR8 were purchased from Invivogen and vendor protocols were followed for cellular propagation and experimentation. Briefly, cells were grown to 80-85% confluence at 5% CO2 in DMEM supplemented with 10% FBS, Zeocin, and Blasticidin. Cells were then seeded in 96-well flat plates at 4×10^4 cells/well with substrate containing HEK detection medium and immunostimulatory molecules (MSC). Activity was measured using a plate reader at 620-655 nm wavelength.

human TLR8 = biological target: T2, human TLR8 (Homo sapiens, UniProt Q9NR97); test: HEK293 NFKB reporter assay, human TLR8; format: cell-based; conditions: HEK293 reporter cells expressing human TLR8; read-out: HEK293 hTLR8 EC50
T2 construct: host or cells: HEK293 reporter cells
T2 sequence (Q9NR97 27-1041): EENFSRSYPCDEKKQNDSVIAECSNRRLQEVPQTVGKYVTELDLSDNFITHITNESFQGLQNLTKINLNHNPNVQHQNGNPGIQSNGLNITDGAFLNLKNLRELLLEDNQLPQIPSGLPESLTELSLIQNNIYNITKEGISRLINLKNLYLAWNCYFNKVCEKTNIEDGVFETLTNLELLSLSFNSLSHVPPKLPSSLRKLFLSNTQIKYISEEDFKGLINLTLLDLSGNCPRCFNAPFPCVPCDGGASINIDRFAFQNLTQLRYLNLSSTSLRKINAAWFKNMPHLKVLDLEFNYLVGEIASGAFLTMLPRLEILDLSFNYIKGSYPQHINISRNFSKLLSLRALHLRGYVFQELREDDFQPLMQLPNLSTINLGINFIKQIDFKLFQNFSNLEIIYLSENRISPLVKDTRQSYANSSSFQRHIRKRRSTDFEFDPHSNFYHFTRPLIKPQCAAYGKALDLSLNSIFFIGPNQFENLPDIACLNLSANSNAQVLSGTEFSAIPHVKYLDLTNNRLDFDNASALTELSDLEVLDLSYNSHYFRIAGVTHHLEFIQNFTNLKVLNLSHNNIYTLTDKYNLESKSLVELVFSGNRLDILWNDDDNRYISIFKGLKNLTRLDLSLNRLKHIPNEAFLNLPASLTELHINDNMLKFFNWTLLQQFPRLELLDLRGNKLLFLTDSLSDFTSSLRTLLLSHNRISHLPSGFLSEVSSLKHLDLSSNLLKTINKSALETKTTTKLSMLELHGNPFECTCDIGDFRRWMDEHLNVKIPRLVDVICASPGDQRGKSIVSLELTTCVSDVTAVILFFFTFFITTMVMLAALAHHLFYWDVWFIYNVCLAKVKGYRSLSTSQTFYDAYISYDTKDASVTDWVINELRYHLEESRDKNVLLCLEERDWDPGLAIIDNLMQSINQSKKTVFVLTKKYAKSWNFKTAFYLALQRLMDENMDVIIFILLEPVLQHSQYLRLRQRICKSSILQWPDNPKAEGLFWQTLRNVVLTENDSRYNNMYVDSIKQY
Method: as §1, §2, §3

EC50 (human TLR7)	EC50 (human TLR8)	Structure (SMILES)
> 9000 nM		CCCN(OCC)C(=O)C1=Cc2ccc(S(=O)(=O)c3ccc(C(=O)OC)cc3)cc2N=C(N)C1 [8SO2Bz-1]
395 nM	< 2.3 nM	CCCN(OCCCC(=O)OC(C)(C)C)C(=O)C1=Cc2ccc(S(=O)(=O)N(C)C)cc2N=C(N)C1 [8SO2Bz-2]
> 5000 nM		CCCN(OCC)C(=O)C1=Cc2ccc(S(=O)(=O)NC)cc2N=C(N)C1 [8SO2Bz-3]

Source: US20250145575A1, “MACROMOLECULE-SUPPORTED 8-SULFONYL-BENZAZEPINE COMPOUNDS AND THEIR USES” (BOLT BIOTHERAPEUTICS, INC., priority 2022, published 2025)
